Data reported in patent US20240287052A1, “NOVEL OXAZOLE DERIVATIVE AND PHARMACEUTICAL COMPOSITION FOR PREVENTING OR TREATING ALLERGIC DISEASES COMPRISING THE SAME” (AZCURIS CO., LTD., priority 2021, published 2024).
Where two headings read alike, the source gives them in different places.

Target: T1, IL33 and ST2 binding (Homo sapiens, UniProt O95760)
T1 sequence (O95760 112-270 limits assumed): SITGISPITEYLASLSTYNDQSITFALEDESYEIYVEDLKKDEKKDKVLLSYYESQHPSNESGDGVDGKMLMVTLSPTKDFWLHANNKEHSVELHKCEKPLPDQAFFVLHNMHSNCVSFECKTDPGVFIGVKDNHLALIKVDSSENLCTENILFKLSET
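Note: plate ELISA with coated Flag-tagged human IL-33 and His-tagged human ST2, bound ST2 detected by anti-His HRP and TMB absorbance at 450 nm, 2 h compound incubation.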

Compound	inhibition (30 µM) [%]	inhibition (100 µM) [%]
CN1CCN(CCNC(=O)c2nc(-c3ccccc3C(F)(F)F)oc2-c2ccccc2)CC1 [Compound 118, N-(2-(4-Methylpiperazin-1-yl)ethyl)-5-phenyl-2-(2-(trifluoromethyl)phenyl)oxazole-4-carboxamide]	24	36
CN(C)CCNC(=O)c1nc(-c2ccccc2C(F)(F)F)oc1-c1ccccc1[N+](=O)[O-] [Compound 119, N-(2-(Dimethylamino)ethyl)-5-(2-nitrophenyl)-2-(2-(trifluoromethyl)phenyl)oxazole-4-carboxamide]	-6	-14
CN1CCN(CCNC(=O)c2nc(-c3ccccc3C(F)(F)F)oc2-c2ccccc2[N+](=O)[O-])CC1 [Compound 120, N-(2-(4-Methylpiperazin-1-yl)ethyl)-5-(2-nitrophenyl)-2-(2-(trifluoromethyl)phenyl)oxazole-4-carboxamide]	7	40
CN(C)CCNC(=O)c1nc(-c2cccc(C(F)(F)F)c2)oc1-c1ccccc1 [Compound 121, N-(2-(Dimethylamino)ethyl)-5-phenyl-2-(3-(trifluoromethyl)phenyl)oxazole-4-carboxamide]	-20	-18
CN1CCN(CCNC(=O)c2nc(-c3cccc(C(F)(F)F)c3)oc2-c2ccccc2)CC1 [Compound 122, N-(2-(4-Methylpiperazin-1-yl)ethyl)-5-phenyl-2-(3-(trifluoromethyl)phenyl)oxazole-4-carboxamide]	-18	0
CN(C)CCNC(=O)c1nc(-c2cccc(C(F)(F)F)c2)oc1-c1ccccc1[N+](=O)[O-] [Compound 123, N-(2-(Dimethylamino)ethyl)-5-(2-nitrophenyl)-2-(3-(trifluoromethyl)phenyl)oxazole-4-carboxamide]	-22	39
CN1CCN(CCNC(=O)c2nc(-c3cccc(C(F)(F)F)c3)oc2-c2ccccc2[N+](=O)[O-])CC1 [Compound 124, N-(2-(4-Methylpiperazin-1-yl)ethyl)-5-(2-nitrophenyl)-2-(3-(trifluoromethyl)phenyl)oxazole-4-carboxamide]	50	31
CN(C)CCN1CCN(C(=O)c2nc(-c3cccc(C(F)(F)F)c3)oc2-c2ccccc2[N+](=O)[O-])CC1 [Compound 125, (4-(2-(Dimethylamino)ethyl)piperazin-1-yl)(5-(2-nitrophenyl)-2-(3-(trifluoromethyl)phenyl)oxazol-4-yl)methanone]	20	24
CN(C)CCNC(=O)c1nc(-c2ccc(C(F)(F)F)cc2)oc1-c1ccccc1 [Compound 126, N-(2-(Dimethylamino)ethyl)-5-phenyl-2-(4-(trifluoromethyl)phenyl)oxazole-4-carboxamide]	-14	6
CN1CCN(CCNC(=O)c2nc(-c3ccc(C(F)(F)F)cc3)oc2-c2ccccc2)CC1 [Compound 127, N-(2-(4-Methylpiperazin-1-yl)ethyl)-5-phenyl-2-(4-(trifluoromethyl)phenyl)oxazole-4-carboxamide]	-24	-5
CN(C)CCN1CCN(C(=O)c2nc(-c3ccc(C(F)(F)F)cc3)oc2-c2ccccc2)CC1 [Compound 129]	45	79
O=C(NCCc1ccc(O)cc1)c1nc(-c2ccc(C(F)(F)F)cc2)oc1-c1ccccc1 [Compound 130, N-(4-Hydroxyphenethyl)-5-phenyl-2-(4-(trifluoromethyl)phenyl)oxazole-4-carboxamide]	11	37
CN(C)CCNC(=O)c1nc(-c2ccc(C(F)(F)F)cc2)oc1-c1ccccc1[N+](=O)[O-] [Compound 131, N-(2-(Dimethylamino)ethyl)-5-(2-nitrophenyl)-2-(4-(trifluoromethyl)phenyl)oxazole-4-carboxamide]	91	92
O=C(c1nc(-c2ccc(C(F)(F)F)cc2)oc1-c1ccccc1[N+](=O)[O-])N1CCCC1 [Compound 138, (5-(2-Nitrophenyl)-2-(4-(trifluoromethyl)phenyl)oxazol-4-yl)(pyrrolidin-1-yl)methanone]	6	11
O=C(NCCN1CCCC1)c1nc(-c2ccc(C(F)(F)F)cc2)oc1-c1ccccc1[N+](=O)[O-] [Compound 139, 5-(2-Nitrophenyl)-N-(2-(pyrrolidin-1-yl)ethyl)-2-(4-(trifluoromethyl)phenyl)oxazole-4-carboxamide]	4	13
O=C(NCCCN1CCCC1)c1nc(-c2ccc(C(F)(F)F)cc2)oc1-c1ccccc1[N+](=O)[O-] [Compound 140, 5-(2-Nitrophenyl)-N-(3-(pyrrolidin-1-yl)propyl)-2-(4-(trifluoromethyl)phenyl)oxazole-4-carboxamide]	10	15

Compound	inhibition (30 µM) [%]	inhibition (100 µM) [%]
O=C(NCc1ccncc1)c1nc(-c2ccc(C(F)(F)F)cc2)oc1-c1ccccc1[N+](=O)[O-] [Compound 141, 5-(2-Nitrophenyl)-N-(pyridin-4-ylmethyl)-2-(4-(trifluoromethyl)phenyl)oxazole-4-carboxamide]	-11	-3
O=C(NCc1cccnc1)c1nc(-c2ccc(C(F)(F)F)cc2)oc1-c1ccccc1[N+](=O)[O-] [Compound 142, 5-(2-Nitrophenyl)-N-(pyridin-3-ylmethyl)-2-(4-(trifluoromethyl)phenyl)oxazole-4-carboxamide]	6	8
O=C(Nc1ccccn1)c1nc(-c2ccc(C(F)(F)F)cc2)oc1-c1ccccc1[N+](=O)[O-] [Compound 143, 5-(2-Nitrophenyl)-N-(pyridin-2-yl)-2-(4-(trifluoromethyl)phenyl)oxazole-4-carboxamide]	9	8
O=C(c1nc(-c2ccc(C(F)(F)F)cc2)oc1-c1ccccc1[N+](=O)[O-])N1CCCCC1 [Compound 144, (5-(2-Nitrophenyl)-2-(4-(trifluoromethyl)phenyl)oxazol-4-yl)(piperidin-1-yl)methanone]	-19	-34
O=C(c1nc(-c2ccc(C(F)(F)F)cc2)oc1-c1ccccc1[N+](=O)[O-])N1CCC(c2ccccc2)CC1 [Compound 145, (5-(2-Nitrophenyl)-2-(4-(trifluoromethyl)phenyl)oxazol-4-yl)(4-phenylpiperidin-1-yl)methanone]	3	11
O=C(c1nc(-c2ccc(C(F)(F)F)cc2)oc1-c1ccccc1[N+](=O)[O-])N1CCN(C2CC2)CC1 [Compound 146, (4-Cyclopropylpiperazin-1-yl)(5-(2-nitrophenyl)-2-(4-(trifluoromethyl)phenyl)oxazol-4-yl)methanone]	-35	-57
CC(=O)c1ccc(NC(=O)c2nc(-c3ccc(C(F)(F)F)cc3)oc2-c2ccccc2[N+](=O)[O-])cc1 [Compound 147, N-(4-Acetylphenyl)-5-(2-nitrophenyl)-2-(4-(trifluoromethyl)phenyl)oxazole-4-carboxamide]	1	4
O=C(NCc1ccc(C(F)(F)F)cc1)c1nc(-c2ccc(C(F)(F)F)cc2)oc1-c1ccccc1[N+](=O)[O-] [Compound 148, 5-(2-Nitrophenyl)-N-(4-(trifluoromethyl)benzyl)-2-(4-(trifluoromethyl)phenyl)oxazole-4-carboxamide]	12	19
O=C(NCCc1ccc(F)cc1)c1nc(-c2ccc(C(F)(F)F)cc2)oc1-c1ccccc1[N+](=O)[O-] [Compound 149, N-(4-Fluorophenethyl)-5-(2-nitrophenyl)-2-(4-(trifluoromethyl)phenyl)oxazole-4-carboxamide]	20	19
CN(C)CCCN1CCN(C(=O)c2nc(-c3ccc(C(F)(F)F)cc3)oc2-c2ccccc2[N+](=O)[O-])CC1 [Compound 150, (4-(3-(Dimethylamino)propyl)piperazin-1-yl)(5-(2-nitrophenyl)-2-(4-(trifluoromethyl)phenyl)oxazol-4-yl)methanone]	-18	7
O=C(c1nc(-c2ccc(C(F)(F)F)cc2)oc1-c1ccccc1[N+](=O)[O-])N1CCN(CCN2CCCCC2)CC1 [Compound 151, (5-(2-Nitrophenyl)-2-(4-(trifluoromethyl)phenyl)oxazol-4-yl)(4-(2-(piperidin-1-yl)ethyl)piperazin-1-yl)methanone]	-33	-16
O=C(c1nc(-c2ccc(C(F)(F)F)cc2)oc1-c1ccccc1[N+](=O)[O-])N1CCN(CCN2CCOCC2)CC1 [Compound 152, (4-(2-Morpholinoethyl)piperazin-1-yl)(5-(2-nitrophenyl)-2-(4-(trifluoromethyl)phenyl)oxazol-4-yl)methanone]	36	48
CCN(CC)CCN1CCN(C(=O)c2nc(-c3ccc(C(F)(F)F)cc3)oc2-c2ccccc2[N+](=O)[O-])CC1 [Compound 154, (4-(2-(Diethylamino)ethyl)piperazin-1-yl)(5-(2-nitrophenyl)-2-(4-(trifluoromethyl)phenyl)oxazol-4-yl)methanone]	0	-25
CN1CCN(C(=O)c2nc(-c3ccc(C(F)(F)F)cc3)oc2-c2ccccc2[N+](=O)[O-])CC1 [Compound 155, (4-Methylpiperazin-1-yl)(5-(2-nitrophenyl)-2-(4-(trifluoromethyl)phenyl)oxazol-4-yl)methanone]	-31	-18
O=C(c1nc(-c2ccc(C(F)(F)F)cc2)oc1-c1ccccc1[N+](=O)[O-])N1CCOCC1 [Compound 156, Morpholino(5-(2-nitrophenyl)-2-(4-(trifluoromethyl)phenyl)oxazol-4-yl)methanone]	-1	41
